Measurements published in US20090181910A1, “METHOD OF PREVENTION AND ALLEVIATION OF TOXICITY BY MODULATION OF IRF3” (priority 2006, published 2009).

Columns and labels:
CYP3A4 = test: Huh7 Q-PCR: CYP3A4
RXRα promoter region = test: ChIP of Hes1 and HDAC1 in BMMs; format: cell-based, Murine; settings: polyI:C 1 μg/ml 1, 3 and 6 hours; FIG. 9e,f
Method: FIG. 9: PolyI:C transcriptionally represses RXRα through recruitment of transcriptional repression machinery. a, BMMs were stimulated with media or polyI:C (1 μg/ml) for 2 hrs, followed by actinomycin D (ActD) (5 μg/ml) for 0, 15, 30, 60, 120 min. BMMs were stimulated with polyI:C (1 μg/ml) for 4 hrs or 8 hrs. RNA was analyzed by Q-PCR. b, Diagram of RXRα promoter based on promoter analysis software (MatInspector). BMMs were stimulated with LPS (10 ng/ml) or polyI:C (1 μg/ml) for 4 hrs. RNA was analyzed by Q-PCR. Wildtype, IRF3^−/− and IFNAR^−/− BMMs were stimulated with polyI:C (1 μg/ml) for 4 hrs. RNA was analyzed by Q-PCR. c, pCMV-RAW 264.7 cells (MT) or pCMV-Hes1-RAW 264.7 cells (Hes1) RNA was analyzed by Q-PCR. d, RAW264.7 cells transfected with siNS or siHes1 duplex oligos were stimulated with polyI:C (1 μg/ml) for 8 hours. RNA was analyzed by Q-PCR. e, f, BMMs were stimulated with polyI:C (1 μg/ml) for 1, 3 and 6 hours. Following stimulation, chromatin immunoprecipitation (ChIP) was performed with anti-Hes1 or anti-HDAC1 antibodies on sonicated samples, washed thoroughly and analyzed by PCR/agarose gel electrophoresis. PCR products on gel are quantified by ImageJ, normalized to Input. g, BMMs were pre-treated with Trichostatin A (TSA) (50 ng/ml) overnight and then stimulated with polyI:C (1 μg/ml) for 4 and 8 hrs. RNA was analyzed by Q-PCR. […]

RXRα = test: RAW264.7 cells with siHes1, Q-PCR: RXRα mRNA; format: cell-based, murine; settings: siRNA specific to Hes1, polyI:C 1 μg/ml 8 hours; FIG. 9d

polyinosinic:polycytidylic acid [polyI:C]
rifampicin induction of CYP3A4 (CYP3A4; Huh7 cells with RXRα overexpression, FIG. 10e): no longer repressed CYP3A4
rifampicin induction of CYP3A4 (CYP3A4; Huh7 cells, rifampicin 25 μM, transfected polyI:C 2 μg/ml): capable of repressing rifampicin induction
recruitment of Hes1 and HDAC1 (ChIP) (RXRα promoter region): promotes specific recruitment of Hes1 and HDAC1 to the RXRα promoter region
polyI:C-mediated repression of RXRα with Hes1 knockdown (RXRα): requirement of Hes1 in polyI:C-mediated repression of RXRα
